Measurements published in patent US7388111B2, “Non-nucleoside reverse transcriptase inhibitors” (Roche Palo Alto LLC, priority 2005, dated 2008).

molecular target: HIV-1 RT (Human immunodeficiency virus type 1 group M subtype B, UniProt P03366); experiment: HIV Reverse Transcriptase Assay: Inhibitor IC50 Determination; assay type: biochemical; settings: purified recombinant enzyme, poly(rA)/oligo(dT)16 template-primer, 37° C. 30 min
Experimental: HIV Reverse Transcriptase Assay: Inhibitor IC50 Determination
HIV-1 RT assay was carried out in 96-well Millipore MultiScreen MADVNOB50 plates using purified recombinant enzyme and a poly(rA)/oligo(dT)16 template-primer in a total volume of 50 μL. The assay constituents were 50 mM Tris/HCl, 50 mM NaCl, 1 mM EDTA, 6 mM MgCl2, 5 μM dTTP, 0.15 μCi [^3H] dTTP, 5 μg/ml poly (rA) pre annealed to 2.5 μg/ml oligo (dT)16 and a range of inhibitor concentrations in a final concentration of 10% DMSO. Reactions were initiated by adding 4 nM HIV-1 RT and after incubation at 37° C. for 30 min, they were stopped by the addition of 50 μl ice cold 20% TCA and allowed to precipitate at 4° C. for 30 min. The precipitates were collected by applying vacuum to the plate and sequentially washing with 3×200 μl of 10% TCA and 2×200 μl 70% ethanol. Finally, the plates were dried and radioactivity counted in a Packard TopCounter after the addition of 25 μl scintillation fluid per well. IC50's were calculated by plotting % inhibition versus log10 inhibitor concentrations.

| Structure (SMILES) | IC50 [nM] |
| --- | --- |
| Cc1cc(S(N)(=O)=O)ccc1NC(=O)Cc1ccc(Oc2c(Cl)cccc2Cl)c(Cl)c1 [Compound I-41, 2-[3-Chloro-4-(2,6-dichloro-phenoxy)-phenyl]-N-(2-methyl-4-sulfamoyl-phenyl)-acetamide] | 162 |
| N#Cc1cc(C#N)cc(Oc2ccc(CC(=O)Nc3ccccc3Br)cc2Cl)c1 [Compound I-20, N-(2-Bromo-phenyl)-2-[3-chloro-4-(3,5-dicyano-phenoxy)-phenyl]-acetamide] | 2380 |
| O=C(Cc1ccc(Oc2cc(Cl)ccc2Br)c(Cl)c1)Nc1ccccc1Cl [Compound I-6, 2-[4-(2-Bromo-5-chloro-phenoxy)-3-chloro-phenyl]-N-(2-chloro-phenyl)-acetamide] | 170 |
| Cc1cc(S(N)(=O)=O)ccc1NC(=O)Cc1ccc(Oc2cc(C#N)cc(C(F)F)c2)c(Br)c1 [Compound I-62, 2-[3-Bromo-4-(3-cyano-5-difluoromethyl-phenoxy)-phenyl]-N-(2-methyl-4-sulfamoyl-phenyl)-acetamide] | 116 |
| Cc1cc(S(N)(=O)=O)ccc1NC(=O)Cc1ccc(Oc2ccc(C#N)cc2C)c(C)c1C [Compound I-23, 2-[4-(4-Cyano-2-methyl-phenoxy)-2,3-dimethyl-phenyl]-N-(2-methyl-4-sulfamoyl-phenyl)-acetamide] | 252 |
| N#Cc1cc(C#N)cc(Oc2ccc(CC(=O)Nc3ccc(S(N)(=O)=O)cc3Br)cc2Cl)c1 [Compound I-21, N-(2-Bromo-4-sulfamoyl-phenyl)-2-[3-chloro-4-(3,5-dicyano-phenoxy)-phenyl]-acetamide] | 159 |
| COc1cc(CC(=O)Nc2ccc(S(N)(=O)=O)cc2Br)ccc1Oc1cc(Cl)cc(C#N)c1 [Compound I-53, N-(2-Bromo-4-sulfamoyl-phenyl)-2-[4-(3-chloro-5-cyano-phenoxy)-3-methoxy-phenyl]-acetamide] | 394 |
| N#Cc1cc(Cl)cc(Oc2ccc(CC(=O)Nc3ccc(CS(N)(=O)=O)cc3)cc2Br)c1 [Compound I-49, 2-[3-Bromo-4-(3-chloro-5-cyano-phenoxy)-phenyl]-N-(4-sulfamoylmethyl-phenyl)-acetamide] | 2350 |
| N#Cc1cc(Cl)cc(Oc2ccc(CC(=O)Nc3ccc(S(N)(=O)=O)cc3Cl)cc2Cl)c1 [Compound I-39, 2-[3-Chloro-4-(3-chloro-5-cyano-phenoxy)-phenyl]-N-(2-chloro-4-sulfamoyl-phenyl)-acetamide] | 92.6 |
| Cc1ccccc1NC(=O)Cc1ccc(Oc2cc(Cl)ccc2Br)c(Cl)c1 [Compound I-7, 2-[4-(2-Bromo-5-chloro-phenoxy)-3-chloro-phenyl]-N-o-tolyl-acetamide] | 832 |
| N#Cc1cc(Cl)cc(Oc2ccc(CC(=O)Nc3ccc(S(N)(=O)=O)cc3)cc2Br)c1 [Compound I-46, 2-[3-Bromo-4-(3-chloro-5-cyano-phenoxy)-phenyl]-N-(4-sulfamoyl-phenyl)-acetamide] | 6000 |
| COc1cc(CC(=O)Nc2ccc(S(N)(=O)=O)cc2Cl)ccc1Oc1ccc(C#N)cc1C [Compound I-55, N-(2-Chloro-4-sulfamoyl-phenyl)-2-[4-(4-cyano-2-methyl-phenoxy)-3-methoxy-phenyl]-acetamide] | 419 |
| O=C(Cc1ccc(Oc2cc(Cl)ccc2Br)c(Cl)c1)Nc1ccccc1F [Compound I-8, 2-[4-(2-Bromo-5-chloro-phenoxy)-3-chloro-phenyl]-N-(2-fluoro-phenyl)-acetamide] | 5810 |
| N#Cc1cc(Cl)cc(Oc2ccc(CC(=O)Nc3ccc(S(N)(=O)=O)cc3Cl)cc2Br)c1 [Compound I-48, 2-[3-Bromo-4-(3-chloro-5-cyano-phenoxy)-phenyl]-N-(2-chloro-4-sulfamoyl-phenyl)-acetamide] | 19.1 |
| N#Cc1ccc(Cl)c(Oc2ccc(CC(=O)Nc3ccc(S(N)(=O)=O)cc3Cl)cc2Cl)c1 [Compound I-36, 2-[3-Chloro-4-(2-chloro-5-cyano-phenoxy)-phenyl]-N-(2-chloro-4-sulfamoyl-phenyl)-acetamide] | 104 |
| COc1cc(CC(=O)Nc2ccc(S(N)(=O)=O)cc2Cl)ccc1Oc1cc(Cl)cc(C#N)c1 [Compound I-52, 2-[4-(3-Chloro-5-cyano-phenoxy)-3-methoxy-phenyl]-N-(2-chloro-4-sulfamoyl-phenyl)-acetamide] | 518 |
| Cc1cc(S(N)(=O)=O)ccc1NC(=O)Cc1ccc(Oc2cc(Cl)cc(C#N)c2)c(Br)c1 [Compound I-47, 2-[3-Bromo-4-(3-chloro-5-cyano-phenoxy)-phenyl]-N-(2-methyl-4-sulfamoyl-phenyl)-acetamide] | 339 |

| Structure (SMILES) | IC50 [nM] |
| --- | --- |
| N#Cc1cc(Oc2ccc(CC(=O)Nc3ccc(S(N)(=O)=O)cc3Br)cc2Br)cc(C(F)F)c1 [Compound I-64, 2-[3-Bromo-4-(3-cyano-5-difluoromethyl-phenoxy)-phenyl]-N-(2-bromo-4-sulfamoyl-phenyl)-acetamide] | 61.2 |
| Cc1cc(S(N)(=O)=O)ccc1NC(=O)Cc1ccc(Oc2cc(Cl)cc(C#N)c2)c(C)c1C [Compound I-66, 2-[4-(3-Chloro-5-cyano-phenoxy)-2,3-dimethyl-phenyl]-N-(2-methyl-4-sulfamoyl-phenyl)-acetamide] | 81.7 |
| N#Cc1cc(Oc2ccc(CC(=O)Nc3ccc(S(N)(=O)=O)cc3Cl)cc2Br)cc(C(F)F)c1 [Compound I-63, 2-[3-Bromo-4-(3-cyano-5-difluoromethyl-phenoxy)-phenyl]-N-(2-chloro-4-sulfamoyl-phenyl)-acetamide] | 53.1 |
| Cc1cc(S(N)(=O)=O)ccc1NC(=O)Cc1ccc(Oc2cc(C#N)ccc2Cl)c(Cl)c1 [Compound I-35, 2-[3-Chloro-4-(2-chloro-5-cyano-phenoxy)-phenyl]-N-(2-methyl-4-sulfamoyl-phenyl)-acetamide] | 395 |
| COc1cc(CC(=O)Nc2ccc(S(N)(=O)=O)cc2C)ccc1Oc1ccc(C#N)cc1C [Compound I-54, 2-[4-(4-Cyano-2-methyl-phenoxy)-3-methoxy-phenyl]-N-(2-methyl-4-sulfamoyl-phenyl)-acetamide] | 2440 |
| Cc1c(CC(=O)Nc2ccc(S(N)(=O)=O)cc2)ccc(Oc2cc(Cl)cc(C#N)c2)c1C [Compound I-65, 2-[4-(3-Chloro-5-cyano-phenoxy)-2,3-dimethyl-phenyl]-N-(4-sulfamoyl-phenyl)-acetamide] | 3120 |
| Cc1c(CC(=O)Nc2ccc(S(N)(=O)=O)cc2Br)ccc(Oc2cc(Cl)cc(C#N)c2)c1C [Compound I-33, N-(2-Bromo-4-sulfamoyl-phenyl)-2-[4-(3-chloro-5-cyano-phenoxy)-2,3-dimethyl-phenyl]-acetamide] | 84.3 |
| Cc1cc(C#N)ccc1Oc1ccc(CC(=O)Nc2ccc(S(N)(=O)=O)cc2Cl)cc1Cl [Compound I-44, 2-[3-Chloro-4-(4-cyano-2-methyl-phenoxy)-phenyl]-N-(2-chloro-4-sulfamoyl-phenyl)-acetamide] | 71.5 |
| Cc1cc(S(N)(=O)=O)ccc1NC(=O)Cc1ccc(Oc2cc(Cl)cc(C#N)c2)c(Cl)c1 [Compound I-38, 2-[3-Chloro-4-(3-chloro-5-cyano-phenoxy)-phenyl]-N-(2-methyl-4-sulfamoyl-phenyl)-acetamide] | 806 |
| N#Cc1cc(Cl)cc(Oc2ccc(CC(=O)Nc3ccc(S(N)(=O)=O)cc3Br)cc2Br)c1 [Compound I-50, 2-[3-Bromo-4-(3-chloro-5-cyano-phenoxy)-phenyl]-N-(2-bromo-4-sulfamoyl-phenyl)-acetamide] | 13.5 |
| COc1cc(CC(=O)Nc2ccc(S(N)(=O)=O)cc2Br)ccc1Oc1ccc(C#N)cc1C [Compound I-56, N-(2-Bromo-4-sulfamoyl-phenyl)-2-[4-(4-cyano-2-methyl-phenoxy)-3-methoxy-phenyl]-acetamide] | 282 |
| Cc1cc(C#N)ccc1Oc1ccc(CC(=O)Nc2ccc(S(N)(=O)=O)cc2Cl)c(C)c1C [Compound I-25, N-(2-Chloro-4-sulfamoyl-phenyl)-2-[4-(4-cyano-2-methyl-phenoxy)-2,3-dimethyl-phenyl]-acetamide] | 157 |
| Cc1cc(OCCCS(N)(=O)=O)ccc1NC(=O)Cc1ccc(Oc2cc(Cl)ccc2Br)c(Cl)c1 [Compound I-5, 2-[4-(2-Bromo-5-chloro-phenoxy)-3-chloro-phenyl]-N-[2-methyl-4-(3-sulfamoyl-propoxy)-phenyl]-acetamide] | 148 |
| COc1cc(CC(=O)Nc2ccc(S(N)(=O)=O)cc2C)ccc1Oc1cc(Cl)cc(C#N)c1 [Compound I-51, 2-[4-(3-Chloro-5-cyano-phenoxy)-3-methoxy-phenyl]-N-(2-methyl-4-sulfamoyl-phenyl)-acetamide] | 1800 |
| Cc1c(CC(=O)Nc2ccc(S(N)(=O)=O)cc2Cl)ccc(Oc2cc(Cl)cc(C#N)c2)c1C [Compound I-18, 2-[4-(3-Chloro-5-cyano-phenoxy)-2,3-dimethyl-phenyl]-N-(2-chloro-4-sulfamoyl-phenyl)-acetamide] | 111 |
| Cc1cc(S(N)(=O)=O)ccc1NC(=O)Cc1ccc(Oc2ccc(C#N)cc2C)c(Cl)c1 [Compound I-43, 2-[3-Chloro-4-(4-cyano-2-methyl-phenoxy)-phenyl]-N-(2-methyl-4-sulfamoyl-phenyl)-acetamide] | 695 |
| NS(=O)(=O)c1ccc(NC(=O)Cc2ccc(Oc3c(Cl)cccc3Cl)c(Cl)c2)c(Cl)c1 [Compound I-45, 2-[3-Chloro-4-(2,6-dichloro-phenoxy)-phenyl]-N-(2-chloro-4-sulfamoyl-phenyl)-acetamide] | 63.4 |

system: not given; experiment: not given; settings: not given

| Structure (SMILES) | melting point [°C] |
| --- | --- |
| N#Cc1cc(Cl)cc(Oc2ccc(CC(=O)Nc3ccc(CS(N)(=O)=O)cc3)cc2Br)c1 [Compound I-49, 2-[3-Bromo-4-(3-chloro-5-cyano-phenoxy)-phenyl]-N-(4-sulfamoylmethyl-phenyl)-acetamide] | 133.4 to 135.3 |
| N#Cc1cc(Cl)cc(Oc2ccc(CC(=O)Nc3ccc(S(N)(=O)=O)cc3Cl)cc2Br)c1 [Compound I-48, 2-[3-Bromo-4-(3-chloro-5-cyano-phenoxy)-phenyl]-N-(2-chloro-4-sulfamoyl-phenyl)-acetamide] | 205 to 207.3 |
| Cc1cc(S(N)(=O)=O)ccc1NC(=O)Cc1ccc(Oc2cc(Cl)cc(C#N)c2)c(Br)c1 [Compound I-47, 2-[3-Bromo-4-(3-chloro-5-cyano-phenoxy)-phenyl]-N-(2-methyl-4-sulfamoyl-phenyl)-acetamide] | 214.6 to 215.9 |
| N#Cc1cc(Cl)cc(Oc2ccc(CC(=O)Nc3ccc(S(N)(=O)=O)cc3Br)cc2Br)c1 [Compound I-50, 2-[3-Bromo-4-(3-chloro-5-cyano-phenoxy)-phenyl]-N-(2-bromo-4-sulfamoyl-phenyl)-acetamide] | 168.1 to 170.4 |
